Data set [1] concerns neural activity. The data set can be described thus: In vivo DNQX release from PEDOT/SNP coated carbon fiber electrode, GCaMP imaging. The following applies: DNQX loaded PEDOT/SNP on carbon fiber electrode, reducing potential, GCaMP mouse. The source says:
Next, we aimed to modulate cellular activity by release of the glutamate AMPA/Kainate receptor antagonist 6,7-dinitroquinoxaiine-2,3-dione (DNQX). DNQX is a small, negatively charged compound that blocks glutamate transmission. We have previously observed that DNQX may be loaded and electrically released from PEDOT/CNT films in vivo and produce a transient (<6 second) inhibition of sensory evoked neural activity recorded in barrel cortex of rats.^[9] In this study, DNQX release from PEDOT/SNP was assessed using a GCaMP mouse model. The GCaMP fluorescence is tied directly to intracellular calcium activity, such that when neurons fire action potentials, the calcium influx cause GCaMP to produce a bright green fluorescence. […]
All animal work was performed under the guidelines of the University of Pittsburgh Institutional Animal Care and Use Committee (IACUC). […] First, a 2-minute baseline was recorded. […] Following 10 cycles of stimulation, a final 2-minute baseline recording was performed Calculations of fluorescence are made by first masking the electrode. A background fluorescence was determined by averaging all frames together, allowing for representation of small time windows as the % change vs the background intensity as shown below.
The inter-pulse fluorescence was determined by Δf during the reducing voltage, and comparing this to the Δf during the prior oxidative voltage (V>−0.2).

The test system of data set [2] is sensory evoked neural activity recorded in barrel cortex. The conditions noted are these: released from PEDOT/CNT films, rat barrel cortex; cited from earlier work.
Data set [3] relates to 3T3 mouse fibroblast cells. As to the kind of experiment: 3T3 viability (XTT) after incubation with released Dox. It counts as cell-based. The following applies: 3-day incubation. As for the experimental part: (§1) Electrochemical methods of drug release may alter the activity of a compound due to the applied potentials, and it is therefore important to verify that the loading and release process doesn't compromise the drug's bioactivity. […] For Dox, a potent chemotherapeutic, release was performed for 0 (passive diffusion for 24 hours), 20, or 200 cycles into serum free DMEM. A small amount of diffusion release was observed from Dox loaded electrodes, as measured by absorbance at […]. […] Released Dox was introduced to cultured 3T3 mouse fibroblast cells (FIG. 7B) and the toxicity was compared to freshly prepared Dox solution at the same concentration. After a 3-day incubation period, the viability of the 3T3 cells was evaluated with the XTT assay. […] Therefore, even though we detected a minute amount of Dox in the diffusion control, this quantity is below the toxic level.
XTT assay was performed as directed by the distributer. In brief, 2,3-Bis-(2-Methoxy-4-Nitro-5-Sulfophenyl)-2H-Tetrazolium-5-Carboxanilide (XTT, Invitrogen, 1 mg ml^−1) was added to culture media. 10 μl of phenazine methosulfate (PMS, 10 mM) was added to XTT/media solution (4 ml) just prior to the addition of XTT solution (50 uL) per well. Cells were incubated for 3 hours and the absorbance of the supernatant was measured at 450 nm. HAPI cells were imaged with a Live/Dead assay (Invitrogen). Supernatant solution was removed and replaced with 1/1000 dilutions for Propidium Iodide and Calcein AM in PBS. Cells were incubated for 1 hour and imaged with fluorescence microscopy.
Dox was loaded and released from PEDOT/SNP films as described above. 3T3 cells were cultured in 48 well plates for 2 days to reach semi-confluency, at which point the culture media was removed and replaced with serum-free media containing stock dox, released dox, or no dox. Cells were culture for 72 h, at which point the media was aspirated and the viability of the cells measured with XTT assay as described above.
In general terms: Formazan colour is commonly taken as a measure of viable cells.

Data set [4] is described as follows: Dox release from PEDOT/SNP film into serum free DMEM. Type of data set: physicochemical. On the procedure:
as §1
5 mg of mesoporous SNP were sonicated with 200 μl of drug solution for 20 minutes prior to the particles being collected by centrifuge and dried under vacuum.
5 mg of drug loaded particles were suspended in 3 ml of EDOT (0.01M) solution in water. Electropolymerization was carried out for 200 seconds on 2 mm diameter gold electrodes or 70 μm diameter Pt/Ir wires (A-M systems, 90/10 Pt/Ir). Electrodes were then washed with PBS on an orbital shaker for 2 hours then soaked overnight to remove any adsorbed drugs.

Data set [5] in a line: K3[Fe(CN)6] reduction (Prussian blue) antioxidant assay of released melatonin. On the procedure: 1 mL of solution was removed and added to 0.8 mL of water, followed by the addition of 200 μL of FeCl3(0.01%, 6 μM), creating a deep blue dye. The absorbance of the resulting solution was measured at 700 nm.
A short description of data set [6]: Electrically controlled dye loading and release from PEDOT/SNP films in PBS. It counts as physicochemical. From the text:
Drug loading and release from conducting polymers with electrical control offers a precise method for pharmacological delivery directly to the site of implantation on demand. Mesoporous SNP were employed for drug delivery due to their exceptionally high loading volume. Rhodamine and fluorescein were used as model drugs for quantifying drug release profile. Fluorescein has a negative charge while rhodamine-b is positively charged, and the combination of rhodamine and fluorescein allow for a better understanding of how oppositely charged compounds can be released from PEDOT/SNP films. The drug loading and release mechanism is depicted in FIG. 2. Nanoparticles were suspended in an aqueous solution of fluorescein, rhodamine, or a combination of both, and sonicated to encourage the entry of the dye into the pores. Loaded sulfonate nanoparticles are then collected from solution by centrifuge then resuspended in an aqueous solution of EDOT. PEDOT/SNP films are polymerized under constant current, producing a film of polymer gated silica nanoparticles. An immediate observation made was the ease of polymerization when the dye was loaded into SNPs prior to polymerization vs without SNPs, with electrode potential being substantially lower for electro-polymerization of drug loaded SNP (FIG. 11). After polymerization, electrodes coated with the dye-loaded composite were examined under a fluorescent microscope to observe the release in phosphate buffered saline (PBS) in real time (FIG. 12). A cyclic voltage sweep from 0.8V to −0.6V was used to trigger drug release from the coatings. We observed a halo of fluorescence surrounding the electrode upon stimulation, which dissipates within seconds of the end of stimulation.
We further quantified the amount of release over number of stimuli from PEDOT/SNP composite and compared the performance to a control group of PEDOT loaded with the dye directly without the mesoporous SNP. Control and SNP dopant groups were polymerized to the same charge density. […]

Data set [7] relates to highly aggressive proliferating immortalized (HAPI) microglia cells. The data set can be described thus: Live/Dead staining of cells on polymer substrate. Type of data set: cell-based. The conditions noted are these: 2 days, Triton-X 0.2% positive control on TCPS. On the procedure:
A cytotoxicity assessment was performed on the PEDOT/SNP composite. Both PEDOT^[51] and silica nanoparticles^[40] have each been successfully employed in in vivo applications. However, small changes to the surface chemistry of the silica nanoparticle warrant investigation into the potential for adverse biological interactions. The commonly employed polymer PEDOT/PSS itself has been previously characterized as non-toxic;^[52] and was used as an ideal reference for the toxicity testing of the PEDOT/SNP. The biocompatibility of the PEDOT/SNP surface was evaluated by directly culturing highly aggressive proliferating immortalized (HAPI) microglia cells on the substrate. After 2 days, XTT was used to measure to metabolic activity of the cells. […] A small degree of auto-fluorescence is detectable for both polymer coatings, resulting in a slight amount of red and green background. […] Given these findings, we can expect that the PEDOT/SNP surface is safe and non-toxic for acute experimentation, while chronic biocompatibility should still be evaluated. […]
XTT assay was performed as directed by the distributer. […] Cells were incubated for 3 hours and the absorbance of the supernatant was measured at 450 nm. […] Cells were incubated for 1 hour and imaged with fluorescence microscopy.

A value given as a limit tells only on which side of the number the result lay.

Take 6,7-dinitroquinoxaline-2,3-dione [DNQX]: in data set [1], the “GCaMP fluorescence intensity during DNQX release vs prior” value is “significant decrease”. Besides, in data set [2], the “duration of transient inhibition of sensory evoked neural activity” value is under 6 s.
Turning to `COc1cccc2c1C(=O)c1c(O)c3c(c(O)c1C2=O)C[C@@](O)(C(=O)CO)C[C@@H]3O[C@H]1C[C@H](N)[C@H](O)[C@H](C)O1` [Dox, Doxorubicin], in data set [3], the “effect of released Dox vs concentration-matched stock Dox” value is “no difference”. Besides, the “3T3 viability vs standard culture media” value in data set [3] (diffusion control (0 cycles, passive diffusion 24 hours)) is “No significant difference”. The “3T3 viability vs control” value in data set [3] (released Dox from 20 stimulations) and in data set [3] (released Dox from 200 stimulations) was “significantly reduced the viability” each time. In addition, the entries for the “Dox released from PEDOT/SNP film” value in data set [4] (20 stimulations) and in data set [4] (200 stimulations) were 1.44 μg cm^−2 and 7.4 μg cm^−2, respectively.
As for `COc1ccc2[nH]cc(CCNC(C)=O)c2c1` [melatonin], the “change in absorbance at 700 nm (antioxidant capacity)” value in data set [5] (melatonin released from PEDOT/SNP film) and in data set [5] (stock melatonin) was “significant change in the absorbance” in each case.
On to `CCN(CC)c1ccc2c(-c3ccccc3C(=O)O)c3ccc(=[N+](CC)CC)cc-3oc2c1` [rhodamine, rhodamine-b], for which the “quantified fluorescent intensity during release vs after” value in data set [6] (PBS, cyclic voltage sweep 0.8V to −0.6V, dye-loaded PEDOT/SNP) is “significantly higher”. Moreover, the “dye release relative to control sample” value in data set [6] (over 9,000 (fluorescein) and 5,000 (rhodamine) stimulations, control PEDOT loaded with dye without SNP) is recorded as “substantial increase”. Also, in data set [6] (vs PEDOT loaded with the dye directly, same charge density), the “Overall drug loading increase when SNP used as a reservoir” value is reported as 16.8 ×.
Triton-X: the “Live dead staining of the cells on the substrate” value in data set [7] was “no viable cells”.

The values above are taken from patent US12194201B2, “Silica nanoparticle doped conductive polymer” (University of Pittsburgh—Of the Commonwealth System of …, priority 2019, dated 2025).
